Results taken from patent US20180256596A1, “METHOD AND TOPICAL COMPOSITION FOR THE TREATMENT OF ROSACEA AND SKIN ERYTHEMA USING PYRITHIONE ZINC” (priority 2017, published 2018).

Tested on: facial Rosacea
Assay: clinical type observations of topical application to facial skin
Assay type: in vivo
Conditions: pyrithione zinc aqueous solution of 1% concentration strength as sole active ingredient
Procedure: In usage, the fluid composition of the invention is to be administered topically by a vehicle or carrier medium compatible with application to the skin. A useful regimen would be to a) mix 1 part of a 1% concentration strength pyrithione zinc aqueous solution with 3 parts of a cocoa butter emulsion moisturizer cream carrier; b) apply the fluid composition to the facial area of concern; c) leave the fluid composition for 2-3 minutes at the area of application; and d) rinse it off. […] For a more resistant condition of facial Rosacea, the regimen would be essentially the same—but with an increased concentration strength of pyrithione zinc aqueous solution, as by the addition of further pyrithione zinc (or zinc pyrithione) crystals to the aqueous formulation.

[O-]n1ccccc1=S.[O-]n1ccccc1=S.[Zn+2] [pyrithione zinc, Bis [1-hydroxy-2(1H)-pyridinethionato-O,S] (T-4) zinc]
redness, flushing and inflammation associated with facial Rosacea and skin erythema: significantly reducing the redness, flushing and inflammation
